{
  "source": "patent US7087424B1",
  "about": "“Method of controlling fungal pathogens, and agents useful for same” (priority 1999, dated 2006)",
  "key": {"[1]": {"experiment": "media pH with purified acids (Table 2)", "assay_type": "physicochemical"}, "take-all fungus": {"tested_on": "take-all fungus", "experiment": "agar overlay / PDA plate bioassay against take-all fungus", "assay_type": "cell-based, G. graminis var tritici", "conditions": "for inhibition zone against take-all fungus: FIG. 6B, 12.5 mg purified sugar acid, agar overlay bioassay; for zone of inhibition at 7500 µg/disc / zone of inhibition at 12500 µg/disc / zone of inhibition at 25000 µg/disc: Gaeumannomyces graminis, read-out: Clearance zone radii; for zone of inhibition at 7500 µg/disc: amount 7.5 mg; for zone of inhibition at 12500 µg/disc: amount 12.5 mg; for zone of inhibition at 25000 µg/disc: amount 25.0 mg; for bioactivity against take-all: purified acids, PDA plate bioassay, FIG. 6A/6B; for protection against take-all: summary of Table 2", "source_text": "A modification of the agar plug assay (Poplawsky et al., 1988) was used to assay for bioactivity of extracts of Pseudomonas strain AN5, or derivative strains thereof, against take-all fungus, wherein an agar overlay assay was used to test activity of specific fractions. This assay involves macerating the take-all fungus grown in Potato Dextrose (PD) broth and seeding it to a Potato Dextrose Agar (PDA) overlay. This PDA overlay was poured onto thick PDA plates. Fractions to be tested for activity were spotted on top of the overlay, and the plates were dried and incubated at 16° C. for 3–5 days.\nActive fractions were identified by the appearance of a clearance zone in the plates, within an opaque background of cultured fungus."}, "[2]": {"tested_on": "Botrytis fabae (Chocolate Spot Fungus)", "experiment": "in vitro bioassays against B. fabae", "assay_type": "cell-based", "source_text": "Accordingly, it is within the scope of the present invention to produce transgenic faba bean plants which produce sugar acids, using the methods described herein, to enhance tolerance of faba beans to B. fabae."}, "[3]": {"conditions": "cited from earlier work"}, "[4]": {"conditions": "cited from earlier work", "remark": "listed apart in the source"}},
  "note": "Where two headings read alike, the source gives them in different places.",
  "data": [
    {"smiles": "CC(=O)O", "note": "[Acetic acid, reference compound]", "values": [
      {"measurement": "media pH", "setting": "[1]; amount 4.2 to 8.4 mg", "value": 2.4}
    ]},
    {"smiles": "O=C1O[C@H]([C@@H](O)CO)C(O)=C1O", "note": "[Ascorbic acid, ascorbic acid]", "values": [
      {"measurement": "media pH", "setting": "[1]; amount 25.0 mg", "value": 1.9},
      {"measurement": "inhibition zone against take-all fungus", "setting": "take-all fungus", "value": "strong inhibition zones"},
      {"measurement": "zone of inhibition at 7500 µg/disc", "setting": "take-all fungus", "value": 0, "unit": "mm"},
      {"measurement": "zone of inhibition at 12500 µg/disc", "setting": "take-all fungus", "value": 9, "unit": "mm"},
      {"measurement": "zone of inhibition at 25000 µg/disc", "setting": "take-all fungus", "value": 20, "unit": "mm"},
      {"measurement": "bioactivity against take-all", "setting": "take-all fungus", "value": "possessed activity"}
    ]},
    {"smiles": "O=C[C@H](O)[C@@H](O)[C@@H](O)[C@H](O)C(=O)O", "note": "[Galacturonic acid, galacturonic acid]", "values": [
      {"measurement": "media pH", "setting": "[1]; amount 25.0 mg", "value": 1.7},
      {"measurement": "biological activity against take-all relative to gluconic acid", "setting": "take-all fungus", "value": "not as strong as gluconic acid"},
      {"measurement": "zone of inhibition at 7500 µg/disc", "setting": "take-all fungus", "value": 7, "unit": "mm"},
      {"measurement": "zone of inhibition at 12500 µg/disc", "setting": "take-all fungus", "value": 20, "unit": "mm"},
      {"measurement": "zone of inhibition at 25000 µg/disc", "setting": "take-all fungus", "value": 25, "unit": "mm"}
    ]},
    {"smiles": "O=C(O)[C@H](O)[C@@H](O)[C@H](O)[C@H](O)CO", "note": "[Gluconic acid, gluconic acid]", "values": [
      {"measurement": "suppression of growth of B. fabae", "setting": "[2]", "value": "suppress the growth and/or reproduction"},
      {"measurement": "media pH", "setting": "[1]; amount 25.0 mg", "value": "about 5.0"},
      {"measurement": "relation of amount used to size of inhibition zone", "setting": "take-all fungus; FIG. 6A, 25, 15, 12.5, 7.5 mg pure gluconic acid", "value": "positive correlation"},
      {"measurement": "zone of inhibition at 7500 µg/disc", "setting": "take-all fungus", "value": 7, "unit": "mm"},
      {"measurement": "zone of inhibition at 12500 µg/disc", "setting": "take-all fungus", "value": 10, "unit": "mm"},
      {"measurement": "zone of inhibition at 25000 µg/disc", "setting": "take-all fungus", "value": 20, "unit": "mm"},
      {"measurement": "bioactivity against take-all", "setting": "take-all fungus", "value": "strong biologically activity"},
      {"measurement": "protection against take-all", "setting": "take-all fungus", "value": "confers protection"}
    ]},
    {"smiles": "O=C[C@H](O)[C@@H](O)[C@H](O)[C@H](O)C(=O)O", "note": "[Glucuronic acid, glucuronic acid]", "values": [
      {"measurement": "media pH", "setting": "[1]; amount 25.0 mg", "value": 1.7},
      {"measurement": "inhibition zone against take-all fungus", "setting": "take-all fungus", "value": "strong inhibition zones"},
      {"measurement": "zone of inhibition at 7500 µg/disc", "setting": "take-all fungus", "value": 0, "unit": "mm"},
      {"measurement": "zone of inhibition at 12500 µg/disc", "setting": "take-all fungus", "value": 10, "unit": "mm"},
      {"measurement": "zone of inhibition at 25000 µg/disc", "setting": "take-all fungus", "value": 20, "unit": "mm"},
      {"measurement": "bioactivity against take-all", "setting": "take-all fungus", "value": "possessed activity"}
    ]},
    {"smiles": "O=C(O)CCCC(=O)O", "note": "[Glutaric acid, glutaric acid]", "values": [
      {"measurement": "media pH", "setting": "[1]; amount 25.0 mg", "value": 2.0},
      {"measurement": "pKa", "setting": "[3]", "value": 4.31},
      {"measurement": "inhibition zone against take-all fungus", "setting": "take-all fungus", "value": "strong inhibition zones"},
      {"measurement": "zone of inhibition at 7500 µg/disc", "setting": "take-all fungus", "value": 15, "unit": "mm"},
      {"measurement": "zone of inhibition at 12500 µg/disc", "setting": "take-all fungus", "value": 20, "unit": "mm"},
      {"measurement": "zone of inhibition at 25000 µg/disc", "setting": "take-all fungus", "value": 25, "unit": "mm"},
      {"measurement": "bioactivity against take-all", "setting": "take-all fungus", "value": "possessed activity"}
    ]},
    {"smiles": "O=C(O)CC(O)C(=O)O", "note": "(stereo not shown) [Malic acid, malic acid]", "values": [
      {"measurement": "media pH", "setting": "[1]; amount 25.0 mg", "value": 1.5},
      {"measurement": "inhibition zone against take-all fungus", "setting": "take-all fungus", "value": "strong inhibition zones"},
      {"measurement": "zone of inhibition at 7500 µg/disc", "setting": "take-all fungus", "value": 10, "unit": "mm"},
      {"measurement": "zone of inhibition at 12500 µg/disc", "setting": "take-all fungus", "value": 20, "unit": "mm"},
      {"measurement": "zone of inhibition at 25000 µg/disc", "setting": "take-all fungus", "value": 25, "unit": "mm"},
      {"measurement": "bioactivity against take-all", "setting": "take-all fungus", "value": "possessed activity"}
    ]},
    {"smiles": "O=C(O)c1cccc2nc3ccccc3nc12", "note": "[PCA, Phenazine-1-carboxylic acid]", "values": [
      {"measurement": "solubility", "setting": "[4]; in chloroform and methylene chloride", "value": "highly soluble"},
      {"measurement": "solubility", "setting": "[4]; in water, methanol and ethyl acetate", "value": "insoluble"}
    ]},
    {"smiles": "O=C([O-])[C@H](O)[C@@H](O)[C@H](O)[C@H](O)CO.[Na+]", "note": "[Sodium gluconate, reference compound]", "values": [
      {"measurement": "media pH", "setting": "[1]; amount 25.0 mg", "value": "about 7.0"},
      {"measurement": "zone of inhibition at 7500 µg/disc", "setting": "take-all fungus", "value": 0, "unit": "mm"},
      {"measurement": "zone of inhibition at 12500 µg/disc", "setting": "take-all fungus", "value": 0, "unit": "mm"},
      {"measurement": "zone of inhibition at 25000 µg/disc", "setting": "take-all fungus", "value": 0, "unit": "mm"},
      {"measurement": "protection against take-all", "setting": "take-all fungus", "value": "did not confer significant protection"}
    ]}
  ]
}
